Experimental data published in paper PMC9948168, “Vanillin-Based Indolin-2-one Derivative Bearing a Pyridyl Moiety as a Promising Anti-Breast Cancer Agent via Anti-Estrogenic Activity” (ACS Omega, 2023).

Assays:
Assay in all cases: NCI-60 one-dose screening
Type in all cases: cell-based
HT29 = conditions: Homo sapiens, HT-29, HT29, Colon Cancer, read-out: GI (%)
Description: (§1) Compounds 5a–c and 6a–o were tested using standard NCI protocols for in vitro activity at the National Cancer Institute (NCI, Bethesda, Maryland, USA), wherein compounds were tested using one single concentration of 10 μM against 60 cell lines of nine different cancer types. […] Excellent activity was observed against a single NSCLC cell line, EKVX, for compounds 5a–c (GIs = 77–86%, Table 1) with no observed activity for indoles with substituted vanillin 6a–o.
(§2) Anticancer activity was tested against 60 cancer cell lines at the NCI, Bethesda, USA. The screening process was done with a single dosage of 10 μM according to NCI protocols published on the NCI website https://dtp.cancer.gov/discovery_development/nci-60/methodology.htm.

EKVX = conditions: Homo sapiens, Non-Small Cell Lung Cancer, read-out: GI (%)
Description: as §1, §2

SF-268 = conditions: Homo sapiens, SF-268, CNS Cancer, read-out: GI (%)
Description: as §1, §2

HS 578T = conditions: Homo sapiens, Breast Cancer, read-out: GI (%)
Description: as §1, §2

OVCAR-3 = conditions: Homo sapiens, OVCAR-3, 10 μM; OVCAR-3, Ovarian Cancer; read-out: GI (%)
Description: as §1, §2

DU-145 = conditions: Homo sapiens, DU-145, Prostate Cancer, read-out: GI (%)
Description: as §1, §2

KM12 = conditions: Homo sapiens, KM12, Colon Cancer, read-out: GI (%)
Description: as §1, §2

UO-31 = conditions: Homo sapiens, UO-31, Renal Cancer, read-out: GI (%)
Description: as §1, §2

UACC-62 = conditions: Homo sapiens, UACC-62, Melanoma, read-out: GI (%)
Description: as §1, §2

MDA-MB-468 = conditions: Homo sapiens, MDA-MB-468, Breast Cancer, read-out: GI (%)
Description: as §1, §2

NCI/ADR-RES = conditions: Homo sapiens, Ovarian Cancer, read-out: GI (%)
Description: as §1, §2

MDA-MB-231/ATCC = conditions: Homo sapiens, Breast Cancer, read-out: GI (%)
Description: as §1, §2

PC-3 = conditions: Homo sapiens, PC-3, Prostate Cancer, read-out: GI (%)
Description: as §1, §2

IGROV1 = conditions: Homo sapiens, IGROV-1, IGROV1, Ovarian Cancer, read-out: GI (%)
Description: as §1, §2

MALME-3M = conditions: Homo sapiens, Melanoma, read-out: GI (%)
Description: as §1, §2

HCT-116 = conditions: Homo sapiens, HCT-116, Colon Cancer, read-out: GI (%)
Description: as §1, §2

HOP-62 = conditions: Homo sapiens, HOP-62, Non-Small Cell Lung Cancer, read-out: GI (%)
Description: as §1, §2

RPMI-8226 = conditions: Homo sapiens, RPMI-8226, Leukemias, read-out: GI (%)
Description: as §1, §2

NCI-H522 = conditions: Homo sapiens, NCI-H522, Non-Small Cell Lung Cancer, read-out: GI (%)
Description: as §1, §2

T-47D = conditions: Homo sapiens, T47D, Breast Cancer, read-out: GI (%)
Description: as §1, §2

U251 = conditions: Homo sapiens, U-251, U251, CNS Cancer, read-out: GI (%)
Description: as §1, §2

HOP-92 = conditions: Homo sapiens, HOP-92, Non-Small Cell Lung Cancer, read-out: GI (%)
Description: as §1, §2

NCI-H23 = conditions: Homo sapiens, NCI-H23, Non-Small Cell Lung Cancer, read-out: GI (%)
Description: as §1, §2

786-0 = conditions: Homo sapiens, 786-0, Renal Cancer, read-out: GI (%)
Description: as §1, §2

SK-MEL-5 = conditions: Homo sapiens, SK-MEL-5, Melanoma, read-out: GI (%)
Description: as §1, §2

SR = conditions: Homo sapiens, Leukemias, read-out: GI (%)
Description: as §1, §2

HCC-2998 = conditions: Homo sapiens, HCC-2998, Colon Cancer, read-out: GI (%)
Description: as §1, §2

SN12C = conditions: Homo sapiens, Renal Cancer, read-out: GI (%)
Description: as §1, §2

SK-MEL-28 = conditions: Homo sapiens, SK-MEL-28, Melanoma, read-out: GI (%)
Description: as §1, §2

SF-539 = conditions: Homo sapiens, SF-539, CNS Cancer, read-out: GI (%)
Description: as §1, §2

SNB-75 = conditions: Homo sapiens, SNB-75, CNS Cancer, read-out: GI (%)
Description: as §1, §2

OVCAR-8 = conditions: Homo sapiens, OVCAR-8, Ovarian Cancer, read-out: GI (%)
Description: as §1, §2

SF-295 = conditions: Homo sapiens, SF-295, CNS Cancer, read-out: GI (%)
Description: as §1, §2

LOX IMVI = conditions: Homo sapiens, Melanoma, read-out: GI (%)
Description: as §1, §2

NCI-H460 = conditions: Homo sapiens, NCI-H460, Non-Small Cell Lung Cancer, read-out: GI (%)
Description: as §1, §2

`COc1cc(C=C2C(=O)Nc3ccc(Cl)cc32)ccc1OCc1ccc(Cl)cc1` (mixture of isomers) [6g] was tested, and the inhibition at 10 µM (HT29) was 6.96%, the inhibition at 10 µM (EKVX) was 27.5% and the inhibition at 10 µM (SF-268) was 20%. It also gave an inhibition at 10 µM (HS 578T) of 2.99%, an inhibition at 10 µM (OVCAR-3) of 74 to 97% and an inhibition at 10 µM (DU-145) of 6.57%. The inhibition at 10 µM (KM12) was 3.49%, the inhibition at 10 µM (UO-31) was 37.9% and the inhibition at 10 µM (UACC-62) was 27%. For the same compound, the inhibition at 10 µM (MDA-MB-468) was 17.2%, the inhibition at 10 µM (NCI/ADR-RES) was 16.1% and the inhibition at 10 µM (MDA-MB-231/ATCC) was 21.6%. For the same compound, the inhibition at 10 µM (PC-3) was 22.3%, the inhibition at 10 µM (IGROV1) was 37.5% and the inhibition at 10 µM (MALME-3M) was 18.7%. The inhibition at 10 µM (HCT-116) was 49%, the inhibition at 10 µM (HOP-62) was 13.1% and the inhibition at 10 µM (RPMI-8226) was -3.63%. For the same compound, the inhibition at 10 µM (NCI-H522) was 6.96%, the inhibition at 10 µM (T-47D) was 10% and the inhibition at 10 µM (U251) was 52.1%. The inhibition at 10 µM (HOP-92) was 27.8%, the inhibition at 10 µM (NCI-H23) was 20.2% and the inhibition at 10 µM (786-0) was 4.52%. It also gave an inhibition at 10 µM (SK-MEL-5) of 8.56%, an inhibition at 10 µM (SR) of 41.6% and an inhibition at 10 µM (HCC-2998) of -4.18%. The inhibition at 10 µM (SN12C) was 9.18%, the inhibition at 10 µM (SK-MEL-28) was -3.4% and the inhibition at 10 µM (SF-539) was 10.7%. The inhibition at 10 µM (SNB-75) was 28.1%, the inhibition at 10 µM (OVCAR-8) was 8.51% and the inhibition at 10 µM (SF-295) was 6.36%. It also gave an inhibition at 10 µM (LOX IMVI) of 46.1% and an inhibition at 10 µM (NCI-H460) of 50.5%.
`COc1cc(C=C2C(=O)Nc3ccc(Cl)cc32)ccc1OCc1ccccn1` (mixture of isomers) [6j] was tested, and the inhibition at 10 µM (HT29) was -8.55%, the inhibition at 10 µM (EKVX) was 27% and the inhibition at 10 µM (SF-268) was 1.24%. For the same compound, the inhibition at 10 µM (HS 578T) was -2.66%, the inhibition at 10 µM (OVCAR-3) was 7.98% and the inhibition at 10 µM (DU-145) was -7.75%. The inhibition at 10 µM (KM12) was -0.52%, the inhibition at 10 µM (UO-31) was 29.6% and the inhibition at 10 µM (UACC-62) was 21.4%. For the same compound, the inhibition at 10 µM (MDA-MB-468) was 14.6%, the inhibition at 10 µM (NCI/ADR-RES) was 5.4% and the inhibition at 10 µM (MDA-MB-231/ATCC) was 4.62%. For the same compound, the inhibition at 10 µM (PC-3) was 11.7%, the inhibition at 10 µM (IGROV1) was 13.4% and the inhibition at 10 µM (MALME-3M) was 1.35%. The inhibition at 10 µM (HCT-116) was -2.75%, the inhibition at 10 µM (HOP-62) was 5.56% and the inhibition at 10 µM (RPMI-8226) was 0.53%. It also gave an inhibition at 10 µM (NCI-H522) of 4.56%, an inhibition at 10 µM (T-47D) of 9.54% and an inhibition at 10 µM (U251) of 5.39%. For the same compound, the inhibition at 10 µM (HOP-92) was -0.22%, the inhibition at 10 µM (NCI-H23) was 9.09% and the inhibition at 10 µM (786-0) was -1.2%. The inhibition at 10 µM (SK-MEL-5) was 3.73%, the inhibition at 10 µM (SR) was 11.5% and the inhibition at 10 µM (HCC-2998) was -6.73%. The inhibition at 10 µM (SN12C) was 3.96%, the inhibition at 10 µM (SK-MEL-28) was -15.1% and the inhibition at 10 µM (SF-539) was 4.61%. The inhibition at 10 µM (SNB-75) was 14.8%, the inhibition at 10 µM (OVCAR-8) was 3.83% and the inhibition at 10 µM (SF-295) was 6.2%. For the same compound, the inhibition at 10 µM (LOX IMVI) was 14.8% and the inhibition at 10 µM (NCI-H460) was -4.56%.
